We go through four molecules from article PMC4186413, “Identification of metabolic pathways and enzyme systems involved in the in vitro human hepatic metabolism of dronedarone, a potent new oral antiarrhythmic drug” (Pharmacology Research & Perspectives, 2014).

Common to all, as to type: in vitro ADME
For one series, the target named is T1, CYP1A1 (Homo sapiens, UniProt P04798).
T1 construct: purchased BD Gentest (Woburn, MA); host or cells: baculovirus-infected insect cells
Kind of series: Oxidation by recombinant human CYP1A1. Particulars: 100 pmol/mL, 5 μmol/L, 30 min, NADPH. From the text:
(§1) Recombinant human CYPs (Supersomes™; BD Gentes, Woburn, MA: CYP1A1, CYP1A2, CYP2A6, CYP2B6, CYP2C8, CYP2C9, CYP2C18, CYP2C19, CYP2D6, CYP2E1, CYP3A4 and CYP3A5), FMOs (Supersomes™: FMO1, FMO3, FMO5), MAOs (Supersomes™: MAO-A and MAO-B), and UGTs (Supersomes™: UGT1A1, UGT1A3, UGT1A4, UGT1A6, UGT1A7, UGT1A8, UGT1A9, UGT1A10, UGT2B4, UGT2B7, UGT2B15, and UGT2B17) expressed in baculovirus-infected insect cells and control microsomes from insect cells infected with wild-type baculovirus were all obtained from BD Gentest (Woburn, MA). […]
(§2) In human liver microsomes and recombinant isoforms, the percentage of metabolism was determined on the basis of unchanged drug disappearance, using the following equation [drawing 1] where UDt = 30 min represents the unchanged drug peak area after a 30-min incubation period and UDt = 0, the unchanged drug peak area at t = 0. […]
(§3) Figure 5 Contribution of individual CYPs, FMOs and MAOs to the oxidation of dronedarone and its metabolites. […] Unchanged drugs were quantified by LC/MS-MS relative to the synthetic references as described in Materials and Methods. Data are expressed as the percentage of oxidation.

The next series deals with T2, UGT2B7 (Homo sapiens, UniProt P16662).
T2 construct: purchased BD Gentest (Woburn, MA); host or cells: baculovirus-infected insect cells
The series is described as follows: Glucuronidation by recombinant human UGT2B7. Particulars: 1 mg/mL, 5 μmol/L, 30 min, UDPGA. The text has this: (§4) Recombinant human CYPs (Supersomes™; BD Gentes, Woburn, MA: CYP1A1, CYP1A2, CYP2A6, CYP2B6, CYP2C8, CYP2C9, CYP2C18, CYP2C19, CYP2D6, CYP2E1, CYP3A4 and CYP3A5), FMOs (Supersomes™: FMO1, FMO3, FMO5), MAOs (Supersomes™: MAO-A and MAO-B), and UGTs (Supersomes™: UGT1A1, UGT1A3, UGT1A4, UGT1A6, UGT1A7, UGT1A8, UGT1A9, UGT1A10, UGT2B4, UGT2B7, UGT2B15, and UGT2B17) expressed in baculovirus-infected insect cells and control microsomes from insect cells infected with wild-type baculovirus were all obtained from BD Gentest (Woburn, MA).
For glucuronidation pathways, the assay mixture was composed of human liver microsomes (2 mg·mL^−1) or microsomes of baculovirus-infected cells expressing human UGTs (1 mg·mL^−1), uridine 5′-diphosphoglucuronic acid (UDPGA) (3 mmol/L), 100 mmol/L Tris HCl (pH 7.4) containing 5 mmol/L MgCl2 and 5 μmol/L of the investigated compound dissolved in DMSO in a final volume of 500 μL. The final concentration of DMSO in the reaction mixture was less than 1% (v/v). […]
Figure 7 Contribution of individual UGTs to the glucuronidation of propanoic acid-dronedarone and phenol-dronedarone. […] Unchanged drugs were quantified by LC/MS-MS relative to the synthetic references as described in Materials and Methods. Data are expressed as the percentage of glucuronidation.

Series [1] in a line: Glucuronidation by human hepatic microsomal fractions with UDPGA. Particulars: 5 μmol/L; for Metabolism in the presence of UDPGA: UDPGA as cofactor. On the procedure: Human hepatic microsomal fractions were obtained from a large pool of human liver (150 individuals) prepared by BD Gentest-Biosciences (BD UltraPool™ HLM 150 – catalogue reference, 452118 Easy Count Box, Woburn, MA). This pooled human liver microsomal batch was also validated internally by the use of FDA-recommended CYP probes (FDA guidance for Industry, draft guidance February 2012).
For glucuronidation pathways, the assay mixture was composed of human liver microsomes (2 mg·mL^−1) or microsomes of baculovirus-infected cells expressing human UGTs (1 mg·mL^−1), uridine 5′-diphosphoglucuronic acid (UDPGA) (3 mmol/L), 100 mmol/L Tris HCl (pH 7.4) containing 5 mmol/L MgCl2 and 5 μmol/L of the investigated compound dissolved in DMSO in a final volume of 500 μL. The final concentration of DMSO in the reaction mixture was less than 1% (v/v). Initial rate conditions with respect to time and protein concentration for both the disappearance of unchanged drug and the formation of respective metabolites were established in preliminary studies. The microsomal mixture was first incubated for 10 min at 4°C in the presence of alamethicin (0.125 mg·mL^−1), then the reaction was initiated by addition of UDPGA (30 mmol/L aqueous solution) to achieve a final concentration of 3 mmol/L for UGT-dependent reactions, incubated at 37°C and stopped after 0–30 min by addition of one volume of ice-cold acetonitrile.
After removal of the proteins by centrifugation at 10,000 rpm for 10 min, a portion of the supernatant was analyzed by LC-UV-MS.
Since a N-glucuronidation process could not be excluded, and because some of the metabolites bear either, a free hydroxyl group or carboxylic acid function, glucuronidation of dronedarone and its potential metabolites was also investigated in human hepatic microsomal fractions in the presence of UDPGA as cofactor. Only propanoic acid-dronedarone and phenol-dronedarone were metabolized in the presence of UDPGA.
Figure 6 Quantitative glucuronidation of propanoic acid-dronedarone (A) and phenol-dronedarone (B) during a 30-min incubation of human hepatic microsomal fractions (1 mg/mL final concentration) with 5 μmol/L unchanged drug in the presence of UDPGA. The kinetics of propanoic acid-dronedarone disappearance (○-○), phenol-dronedarone disappearance and their respective glucuronide formation (●-●, dashed line) were recorded over 30 min. Propanoic acid-dronedarone and phenol-dronedarone were quantified by LC/MS-MS relative to the synthetic references, while the peak area of their respective identified glucuronide was expressed in arbitrary units (×10^3), as described in Materials and Methods.

A further series concerns the target T3, CYP3A4 (Homo sapiens, UniProt P08684).
T3 construct: purchased BD Gentest (Woburn, MA); host or cells: baculovirus-infected insect cells
Kind of series: Oxidation by recombinant human CYP3A4. Particulars: for Percentage of oxidation (unchanged drug disappearance) by CYP3A4: 100 pmol/mL, 5 μmol/L, 30 min, NADPH.
Excerpt: as §4
For oxidative pathways, the assay mixture was composed of human liver microsomes (1 mg·m·L^−1) or microsomes of baculovirus-infected cells expressing human enzymes (100 pmol·mL^−1 for CYPs and 1 mg·mL^−1 for FMOs and MAOs), nicotinamide adenine dinucleotide phosphate reduced form (NADPH) (1 mmol/L), 100 mmol/L potassium phosphate (pH 7.4), and 5 μmol/L of the investigated compound dissolved in DMSO in a final volume of 500 μL.
The final concentration of DMSO in the reaction mixture was less than 1% (v/v). Initial rate conditions with respect to time and protein concentration for both the disappearance of unchanged drug and the formation of respective metabolites were established in preliminary studies. […]
as §2, §3

The next series concerns the target T4, CYP3A5 (Homo sapiens, UniProt P20815).
T4 construct: purchased BD Gentest (Woburn, MA); host or cells: baculovirus-infected insect cells
Kind of series: Oxidation by recombinant human CYP3A5.
Excerpt: as §1, §2, §3

Setting [2] is: 5 μmol/L dronedarone, end of 30-min incubation.

T3 sequence (P08684 whole entry): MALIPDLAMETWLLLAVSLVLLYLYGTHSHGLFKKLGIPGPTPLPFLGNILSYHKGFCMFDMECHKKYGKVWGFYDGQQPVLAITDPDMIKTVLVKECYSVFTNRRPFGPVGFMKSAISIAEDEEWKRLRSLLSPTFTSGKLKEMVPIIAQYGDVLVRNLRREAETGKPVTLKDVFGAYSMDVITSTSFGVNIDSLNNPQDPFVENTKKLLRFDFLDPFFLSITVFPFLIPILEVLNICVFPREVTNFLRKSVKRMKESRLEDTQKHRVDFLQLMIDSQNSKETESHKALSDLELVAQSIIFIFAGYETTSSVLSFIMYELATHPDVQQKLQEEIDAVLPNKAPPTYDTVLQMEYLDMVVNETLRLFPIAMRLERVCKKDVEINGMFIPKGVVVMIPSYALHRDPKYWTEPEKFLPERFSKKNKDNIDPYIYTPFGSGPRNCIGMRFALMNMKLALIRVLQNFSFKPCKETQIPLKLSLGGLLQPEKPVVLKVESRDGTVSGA
T2 sequence (P16662 24-529): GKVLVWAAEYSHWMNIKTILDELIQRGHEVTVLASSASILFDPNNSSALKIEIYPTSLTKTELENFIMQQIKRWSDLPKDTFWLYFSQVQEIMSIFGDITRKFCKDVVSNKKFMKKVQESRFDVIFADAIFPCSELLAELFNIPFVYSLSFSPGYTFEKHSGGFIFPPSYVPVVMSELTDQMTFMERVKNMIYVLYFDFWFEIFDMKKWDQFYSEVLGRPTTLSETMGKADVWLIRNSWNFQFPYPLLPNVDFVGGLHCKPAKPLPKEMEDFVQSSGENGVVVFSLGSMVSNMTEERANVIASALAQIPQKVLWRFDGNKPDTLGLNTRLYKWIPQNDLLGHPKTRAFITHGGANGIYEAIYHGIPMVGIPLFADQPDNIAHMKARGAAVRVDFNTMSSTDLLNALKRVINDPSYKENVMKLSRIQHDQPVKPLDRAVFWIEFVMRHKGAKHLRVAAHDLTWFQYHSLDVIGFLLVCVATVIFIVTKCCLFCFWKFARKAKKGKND
T4 sequence (P20815 whole entry): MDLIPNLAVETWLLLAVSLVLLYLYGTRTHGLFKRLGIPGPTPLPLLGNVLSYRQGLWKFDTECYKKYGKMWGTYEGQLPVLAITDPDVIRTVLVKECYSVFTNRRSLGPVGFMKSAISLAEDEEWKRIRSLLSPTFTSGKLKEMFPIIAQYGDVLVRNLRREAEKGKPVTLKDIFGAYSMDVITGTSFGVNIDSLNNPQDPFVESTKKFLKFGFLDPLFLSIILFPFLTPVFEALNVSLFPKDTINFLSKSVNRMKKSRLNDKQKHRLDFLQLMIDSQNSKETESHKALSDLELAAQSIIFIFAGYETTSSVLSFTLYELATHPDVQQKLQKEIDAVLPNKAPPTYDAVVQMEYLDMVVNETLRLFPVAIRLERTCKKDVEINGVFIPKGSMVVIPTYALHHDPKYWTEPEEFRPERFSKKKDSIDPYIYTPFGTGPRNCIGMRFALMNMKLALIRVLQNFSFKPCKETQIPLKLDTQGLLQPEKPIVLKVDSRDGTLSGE
T1 sequence (P04798 whole entry): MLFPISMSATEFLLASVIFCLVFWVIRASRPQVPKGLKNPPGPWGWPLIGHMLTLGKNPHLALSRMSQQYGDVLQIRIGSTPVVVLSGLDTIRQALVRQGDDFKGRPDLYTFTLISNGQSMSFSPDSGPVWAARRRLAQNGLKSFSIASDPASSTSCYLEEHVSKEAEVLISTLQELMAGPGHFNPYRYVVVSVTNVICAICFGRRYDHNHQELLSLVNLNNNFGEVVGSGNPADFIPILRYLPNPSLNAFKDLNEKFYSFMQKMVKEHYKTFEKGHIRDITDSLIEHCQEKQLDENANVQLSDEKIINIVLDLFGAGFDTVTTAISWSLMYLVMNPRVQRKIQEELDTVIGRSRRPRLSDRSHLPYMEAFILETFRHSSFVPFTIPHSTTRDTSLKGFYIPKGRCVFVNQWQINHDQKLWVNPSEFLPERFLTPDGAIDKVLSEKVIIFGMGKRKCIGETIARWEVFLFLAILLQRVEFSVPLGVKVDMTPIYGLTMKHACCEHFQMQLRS

`CCCCc1oc2ccc(NS(C)(=O)=O)cc2c1C(=O)c1ccc(OCCC(=O)O)cc1` [Propanoic acid-dronedarone]: the “Percentage of oxidation (unchanged drug disappearance) by CYP1A1” value at CYP1A1 amounted to 59%. In addition, on UGT2B7, the “Glucuronosyl transferase activity of UGT2B7” value was “significant glucuronosyl transferase activity”. Besides, in series [1], the “Metabolism in the presence of UDPGA” value is on record as “metabolized”. The “Unchanged drug remaining, percent of initial concentration” value in series [1] (UDPGA, 30th minute of incubation) was found to be 70%.
For `CCCCc1oc2ccc(NS(C)(=O)=O)cc2c1C(=O)c1ccc(OCCCN(CCCC)CCCC)cc1.Cl` [Dronedarone, N-(2-Butyl-3-(4-(3-(dibutylamino)propoxy)benzoyl)-5-benzofuranyl)methanesulfonamide, hydrochloride], the “Percentage of oxidation (unchanged drug disappearance) by CYP3A4” value at CYP3A4 was 94%. Moreover, at CYP3A5 (100 pmol/mL, 5 μmol/L, 30 min, NADPH), the “Percentage of oxidation (unchanged drug disappearance) by CYP3A5” value is 90%.
Turning to `CCCCNCCCOc1ccc(C(=O)c2c(CCCC)oc3ccc(NS(C)(=O)=O)cc23)cc1` [N-debutyl-dronedarone], the “Percentage of oxidation (unchanged drug disappearance) by CYP3A4” value on CYP3A4 was found to be 21%. The “Metabolite formed, as percent of initial dronedarone concentration, with CYP3A4” value at CYP3A4 (setting [2]) is on record as 60%. Moreover, the “Metabolite formed, as percent of initial dronedarone concentration, with CYP3A5” value at CYP3A5 (setting [2]) is 50%.
On to `CCCCc1oc2ccc(NS(C)(=O)=O)cc2c1C(=O)c1ccc(O)cc1` [Phenol-dronedarone], for which, on CYP1A1, the “Percentage of oxidation (unchanged drug disappearance) by CYP1A1” value was found to be 99%. For the same molecule, on UGT2B7, the “Glucuronosyl transferase activity of UGT2B7” value is given as “significant glucuronosyl transferase activity”. For the same molecule, the “Metabolism in the presence of UDPGA” value in series [1] is given as “metabolized”. Also, in series [1] (UDPGA, in 10 min), the Initial drug metabolized entry is listed as “more than 70%”.
